Measurements reported in PubChem BioAssay AID248 (DTP/NCI, 2004).
Inconclusive results and toxic doses are left out. No stated cut-off is given here; in the data, active means T/C of 150% or more; inactive means T/C below 125%.

Tested on: L1210 leukemia ip in BDF1 mice, survival T/C
Assay: NCI In Vivo Anticancer Drug Screen. Data for tumor model L1210 Leukemia (intraperitoneal) in B6D2F1 (BDF1) mice
Conditions: endpoint: mean survival time, higher = longer survival
Outline: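 Tumor was transplanted into mice, which were then dosed with test compound or vehicle alone. Survival was recorded for each group, and the treated figure was expressed relative to the control figure.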

[1] = dose: 100.0 mg/kg/injection, schedule: Q01DX009 (ip), vehicle: saline with Tween-80
[2] = dose: 200.0 mg/kg/injection, schedule: Q01DX009 (ip), vehicle: saline with Tween-80

Measured: T/C

CC1=Nc2ccccc2/C1=C/c1c(O)[nH]c(=O)[nH]c1=O
inactive: dose: 37.5 mg/kg/injection, schedule: Q01DX Z (ip), vehicle: carboxymethylcellulose (CMC) 103 % of control | dose: 75.0 mg/kg/injection, schedule: Q01DX Z (ip), vehicle: carboxymethylcellulose (CMC) 103 % of control | dose: 150.0 mg/kg/injection, schedule: Q01DX Z (ip), vehicle: carboxymethylcellulose (CMC) 100 % of control | dose: 300.0 mg/kg/injection, schedule: Q01DX Z (ip), vehicle: carboxymethylcellulose (CMC) 103 % of control

Cc1cc(Cl)ccc1NS(=O)(=O)c1cccc([N+](=O)[O-])c1
inactive: [1] 90 % of control | [2] 90 % of control | dose: 400.0 mg/kg/injection, schedule: Q01DX009 (ip), vehicle: saline with Tween-80 87 % of control

CCOC(=O)c1ccc(NC(=O)Sc2ccc(C(C)(C)C)cc2C)cc1
inactive: [1] 96 % of control | [2] 100 % of control
